Read-outs that look alike come from different tables or passages of the source.

The subject of assay [1] is A549 cells. The assay can be described thus: Indirect immunofluorescence of the microtubular network. It is filed as cell-based, human. Conditions: 24 h. From the text: We first assessed their impact on the cellular microtubular network. […] These defects manifested as multinucleated cells resulting from multiple abnormal star-like spindles, leading to an aberrant arrangement of chromosomes. […] We then evaluated their ability to overcome intrinsic resistance mechanisms using cell lines overexpressing βIII-tubulin isotype (HeLaβIII) or P-glycoprotein, PgP, (Kb-V1), compared to parental HeLa and Kb-3.1 cells.
2 Cellular and biochemical characterization of compounds 1a and 1b. (A) Effects of compounds on A549 cells. […] Top row panels are control cells treated with 0.5% DMSO (vehicle), with the usual and evenly distributed microtubular network in interphase and normal bipolar spindle with chromosomes aligned at the metaphase plate during mitosis. […] All images are shown at the same magnification; scale bar 10 μm. […] (C) Van’t Hoff Plot of the equilibrium binding constants of compounds 1a and 1b at the assayed temperatures. Error bars represent the standard error of the measurement.
DMSO was always less than 0.5% v/v. PEG and Triton X-100 were applied to cells prior the fixation with 3.7% formaldehyde, as previously described. Cells were incubated with a DM1A mouse monoclonal antibody (Sigma-Aldrich) reacting with α-tubulin. […] Images were recorded using a Leica DFC360 FX CCD camera.

Assay [2] deals with HeLa cells. In words: MTT cytotoxicity assay, HeLa. Conditions: Homo sapiens, 48 h, read-out: Cytotoxicity IC50 HeLa. Type of assay: cell-based.
Protocol: Antiproliferative assays were performed as described. […] Then, increasing concentrations of drugs were added and incubated for 48 h prior to the reaction with the MTT solution. IC50 values were obtained by fitting the experimental data (absorbance at 570/690 nm) to a four-parameter logistic curve using SigmaPlot 14.5 software package (Systat Software, Inc., San Jose, CA, USA) and IC50 values were expressed as mean ± SEM from three independent experiments, each performed in duplicate.
In assay [3] the test system is human Kif5B 1–905-EGFP on stabilized MTs. In words: Single-molecule kinesin-1 motility assay on stabilized MTs (TIRF). It is filed as biochemical. The procedure: To gain mechanistic insight into the kinesin phenotype observed in cells, we reduced system complexity using an in vitro reconstitution assay. Specifically, we performed time-lapse imaging using total internal reflection fluorescence (TIRF) microscopy with immobilized and stabilized MTs in a flow chamber, into which we introduced 1.08 nM kinesin-1 motors (constitutively active human Kif5B 1–905-EGFP). We then analyzed individual kinesin movements to quantify landing rates (number of motors per unit MT length per unit time), run lengths, interaction times, and average velocities (Figure D, Movies S12–S15). In contrast to our experiments in cells, here we evaluated each structural modification individually to dissect the effects of MT lattice parameters on kinesin-1 mediated transport.
Total Internal Reflection Fluorescence microscopy experiments were performed on an inverted widefield microscope Nikon-Ti2 E, equipped with a motorized XY-stage, a perfect focus system, Apo TIRF 60× oil NA 1.49 objective and PRIME BSY (Teledyne Photometrics) camera. MTs were visualized using Interference Reflection microscopy (IRM) and fluorescently labeled proteins were visualized sequentially by switching between microscope filter cubes for GFP and mCherry channels. The microscopes were controlled using NIS Elements software (Nikon). All experiments were conducted at RT.
Microscopy chambers were prepared from two sandwiched silanized glass coverslips (22 × 22 mm^2 and 18 × 18 mm^2) attached through parafilm strips (heated for 15–20 s at 60 °C and gently pressed together) to form ∼2.5 mm wide parallel flow channels. Prior to the chamber assembly, the coverslips were washed in 3 M KOH, cleaned using Zepto plasma cleaner (Diener electronic) and silanized with hexamethyldisilazane. Flow channels were first incubated with 40 μgml^–1 antibiotin antibodies (Sigma, B3640) in PBS for 10 min, followed by incubation with 1% Pluronic F127 (Sigma-Aldrich, P2443) in PBS for at least 1 h. F127 was washed with BRB80 (80 mM PIPES, 1 mM EGTA, 1 mM MgCl2, pH 6.9).
Porcine brain tubulin was isolated using the high-molarity PIPES procedure then mixed with Biotin labeled tubulin (Cytoskeleton Inc., T333P) in 1:49 ratio. All MTs were polymerized using 2% biotin-labeled tubulin. […] Polymerized MTs were centrifuged for 30 min at 18,000g in a Microfuge 18 Centrifuge (Beckman Coulter’s). […] Drug stabilized preassembly MTs (polymerized in the presence of drugs and GTP, stored and imaged in presence of drug) were polymerized from 4 mg mL^–1 biotinylated tubulin for 30 min at 37 °C in BRB80 supplemented with 4 mM MgCl2, 40 μM drug of interest in 5% DMSO, and 1 mM GTP. Polymerized MTs were centrifuged for 30 min at 18,000g in a Microfuge 18 Centrifuge (Beckman Coulter’s). […] GMPCPP stabilized MTs (GMPCPP polymerized) were assembled from 4 mg mL^–1 biotinylated tubulin for 2 h at 37 °C in BRB80 supplemented with 1 mM MgCl2 and 1 mM GMPCPP (Jena Bioscience, NU-405). Polymerized MTs were centrifuged for 30 min at 18,000g in a Microfuge 18 Centrifuge (Beckman Coulter’s) and pellets were resuspended and kept in BRB80.
Stabilized MTs were flushed into the channel and incubated for 15–30 s to allow for surface attachment. Unbound MTs were removed by washing with BRB80 supplemented with 10 μM of drug. Prior the experiment, the solution was exchanged by motility buffer, MB (BRB80 containing 10 mM DTT, 20 mM D-glucose, 0.1% Tween-20, 0.5 mg/mL casein, 1 mM Mg-ATP, 0.02 mg/mL catalase, 0.22 mg/mL glucose oxidase, 10 μM drug). Subsequently, a solution containing either 1.08 nM Kif5b-EGFP or 10/40 nM mCherry-Tau in MB was introduced into the chamber.
To assess kinesin-EGFP motility along MTs, an IRM image (50 ms exposure) was acquired followed by a 1 min video using 488 nm laser excitation (20% laser intensity, 300 ms exposure) with no delay. Two to three videos were recorded from different fields within the same channel and at least 2 channels were measure for each experimental condition. […]

Assay [4] relates to taxane site of assembled cross-linked MTs. Conditions: cited from earlier work.
Where [5] appears, read: ref footnote b 'As in ref .' (number not given).
Where [6] appears, read: equilibrium constants from anisotropy measurements, ref footnote c 'As in ref .' (number not given).

Turning to `COc1ccc2c(c1)CC(NC(=O)CCCCCCCC(=O)OC1CC3OCC3(OC(C)=O)C3C(OC(=O)c4ccccc4)C4(O)CC(OC(=O)C(O)C(NC(=O)c5ccccc5)c5ccccc5)C(C)=C(C(OC(C)=O)C(=O)C13C)C4(C)C)CC2` [1b, 7-O-((S)-9″-(7‴-Methoxy-1‴,2‴,3‴,4‴-tetrahydronaphthalen-2‴-yl)amino) −9″-oxononanoyl) Paclitaxel], the “selected concentration showing equivalent effect on microtubular network and mitotic spindles” value in assay [1] was determined as 1 µM. Besides, in assay [2] (MTT, mean ± SEM), the IC50 (commonly the midpoint of a concentration-inhibition curve) came out at 100 ± 20 nM.
Take `CC(=O)O[C@H]1C(=O)[C@@]2(C)[C@H]([C@H](OC(=O)c3ccccc3)[C@]3(O)C[C@H](OC(=O)[C@H](O)[C@@H](NC(=O)c4ccccc4)c4ccccc4)C(C)=C1C3(C)C)[C@]1(OC(C)=O)CO[C@@H]1C[C@@H]2O` [PTX, Paclitaxel]: the “kinesin-1 run length on stabilized MTs” value in assay [3] (compared to native-like MTs) is on record as “reduce run length”. In addition, in assay [4] (setting [5]), the “K b 26 °C” value was “(2.64 ± 0.17) × 10^7 M-1”, the “K b 35 °C” value is “(1.43 ± 0.17) × 10^7 M-1”, the “K b 42 °C” value is “(0.94 ± 0.23) × 10^7 M-1” and the “ΔG 0 app at 26 °C” value is “–41.7 ± 0.2 kJ mol^–1”. Further, the “ΔS 0 app” value in assay [4] (setting [5]) is listed as “–29.3 ± 13.1 J mol ^aK^–1”.
Take `CC(=O)OC1C(=O)C2(C)C(OC(=O)CCCCC(=O)OC3CCc4ccccc43)CC3OCC3(OC(C)=O)C2C(OC(=O)c2ccccc2)C2(O)CC(OC(=O)C(O)C(NC(=O)c3ccccc3)c3ccccc3)C(C)=C1C2(C)C` (stereo not shown) [1a, 7-O-(6″-O-(2‴,3‴-Dihydroinden-1‴-yl)hexanedioyl) Paclitaxel]: the “selected concentration showing equivalent effect on microtubular network and mitotic spindles” value in assay [1] was found to be 2 µM. Moreover, in assay [2], the concentration for half-maximal inhibition (IC50) is 180 ± 20 nM. In assay [3] (1.08 nM Kif5b-EGFP, 10 μM drug), the “kinesin-1 landing rate on stabilized MTs” value was “increased on 1a compared with 1b”, the “kinesin-1 time bound on stabilized MTs” value is “increased the time bound” and the “kinesin-1 velocity on stabilized MTs” value is “decreased the velocity”.
As to `CC(=O)O[C@H]1C(=O)[C@]2(C)[C@@H](OC(=O)[C@H](C)NC(=O)c3ccc(-c4c5cc(F)c(=O)cc-5oc5cc(O)c(F)cc45)c(C(=O)O)c3)C[C@H]3OC[C@@]3(OC(C)=O)[C@H]2[C@H](OC(=O)c2ccccc2)[C@]2(O)C[C@H](OC(=O)[C@H](O)[C@@H](NC(=O)c3ccccc3)c3ccccc3)C(C)=C1C2(C)C` [FTX2, Flutax2], in assay [4] (setting [6]), the “K b 26 °C” value is given as “(5.9 ± 0.3) × 10^7 M-1”, the “K b 35 °C” value was “(2.2 ± 0.2) × 10^7 M-1” and the “K b 42 °C” value was “(1.8 ± 0.2) × 10^7 M-1”.

Source of the values: PMC13492380, “Dissecting Structural and Functional Determinants of Microtubules Stabilization through Guided Chemical Modulation” (Journal of Medicinal Chemistry, 2026).
